Experiments:
[1] = Solubility of crystalline rupununine in organic solvents; assay type: physicochemical; details: crystalline white solid
Method: (§1) Rupununine (100 mg.) was dissolved in the minimum volume of distilled acetone (2 ml). The solution was warmed gently, filtered and then left in the refrigerator overnight. This produced white needles which were recrystallized in acetone giving crystalline rupununine (45 mg.). Further crystalline samples were also obtained by the same treatment with acetone, of Fraction C.1 and C.2. The crystals were dried in a drying pistol under nitrogen, over phosphorus pentoxide at 60° C. overnight. […] The crystals melted between 214°-217° C., and were fairly stable, if kept under nitrogen at room temperature, even for prolonged periods.

[2] = Stability of rupununine crystals under nitrogen at room temperature; assay type: physicochemical; details: crystals kept under nitrogen at room temperature, prolonged periods
Method: as §1

**Q.** With rupununine as the substance, how does the solubility in chloroform ([1]; chloroform) read?
**A.** fairly soluble

**Q.** What about the solubility in ethanol ([1]; ethanol) of the same substance?
**A.** fairly soluble

**Q.** And the solubility in ether ([1]; ether)?
**A.** only partially soluble

**Q.** And the solubility in methanol ([1]; methanol)?
**A.** fairly soluble

**Q.** What about the stability [2] of the same substance?
**A.** fairly stable
